The term IC50 denotes the concentration that inhibits the measured activity by half. A low value points to greater potency in that assay.

This test relates to extracellular HBeAg level (surrogate marker for cccDNA) in HepDES19 cells. Kind of test: HepDES19 primary screen assay. To be noted: Hepatitis B virus, 120 h, 5 days compound incubation, HBeAg ELISA. It is filed as cell-based, HBV. An excerpt: The assay was employed to primarily screen for novel cccDNA inhibitors. HepDES19 is an engineered cell line which contains a 1.1 unit length HBV genome, and pgRNA transcription from the transgene is controlled by Tetracycline (Tet). In the absence of Tet, pgRNA transcription will be induced, but HBV e antigen (HBeAg) could not be produced from this pgRNA due to the fact that the very short leader sequence before the HBeAg start codondisrupted the start codon. Only after cccDNA is formed, the missing leader sequence and start codon mutation would be restored from the 3′-terminal redundancy of pgRNA, and then HBeAg could be synthesized. Therefore, HBeAg could be used as a surrogate marker for cccDNA (Zhou, T. et al., Antiviral Res(2006), 72(2), 116-124; Guo, H. et al., J. Virol (2007), 81(22), 12472-12484).
HepDES19 cells were seeded at 2×10^6 cells per T150 flask and cultured with the culture medium (Dulbecco's Modified Eagle Medium: Nutrient Mixture F-12 (DMEM:F12, Gibco Cat. 11320-82), 10% Fetal Bovine Serum (FBS, Clontech Cat. 631101), 0.1 mM Non-Essential Amino Acids Solution (NEAA, Gibco Cat. 11140-050), 50 μg/mL Penicillin-Streptomycin (PS, Invitrogen Cat. 15140-163), 500 μg/mL Geneticin (G418, Invitrogen Cat. 10131-027) containing 3 μg/mL Tet (Sigma, Cat. 87128) for 5 days. Cells were then seeded at 4×10^6 cells per T150 in the same culture medium as described above in the absence of Tet for 8 days. Cells were then harvested and frozen at density of 2×10^6 cells per mL. For compound testing, the frozen cells were thawed and seeded into 96-well plates at a density of 6×10^4 cells per well. At 24 hrs after seeding, half log serial dilutions of compounds made with Dimethyl sulfoxide (DMSO, Sigma, Cat. D2650) were further diluted with the same culture medium as described above before they were added to the cells to reach desired final compound concentrations and 1% DMSO concentration. Plates were then incubated at 37° C. for another 5 days before measurement of HBeAg level and cell viability. Extracellular HBeAg level were measured with enzyme-linked immunosorbent assay (ELISA) kit (Shanghai Kehua Diagnostic Medical Products Co., Ltd). Cell viability was assessed using Cell Counting Kit-8 (Donjindo, Cat. CK04-20). IC50 values were derived from the dose-response curve using 4 parameter logistic curve fit method.
The compounds of the present invention were tested for their capacity to inhibit extracellular HBeAg level as described herein.
For orientation: In an ELISA, binding on a coated surface is turned into a signal by an enzyme label.
`O=c1c2ccc(N3CCCC3)cc2oc2c(Cl)cccc12` [Example 1, 5-chloro-3-pyrrolidin-1-yl-xanthen-9-one] registered an IC50 of 0.23 µM.

`O=C(O)CC1CCN(c2ccc3c(=O)c4cccc(Cl)c4oc3c2)C1` (centres unmarked) [Example 8, 2-[1-(5-chloro-9-oxo-xanthen-3-yl)pyrrolidin-3-yl]acetic Acid] displayed an IC50 of 7.53 µM.

`O=c1c2ccc(N3CCCCC3)cc2oc2c(F)cccc12` [Example 9, 5-fluoro-3-(1-piperidyl)xanthen-9-one] yielded an IC50 of 0.98 µM.

`O=c1c2ccc(N3CCC(CO)C3)cc2oc2c(Cl)cccc12` (centres unmarked) [Example 10, 5-chloro-3-[3-(hydroxymethyl)pyrrolidin-1-yl]xanthen-9-one] registered an IC50 of 1.13 µM.

`COC(=O)C1CCN(c2ccc3c(=O)c4cccc(Cl)c4oc3c2)C1` (centres unmarked) [Example 11, Methyl 1-(5-chloro-9-oxo-xanthen-3-yl)pyrrolidine-3-carboxylate]: half-maximal inhibition (IC50) was put at 1.17 µM.

`O=c1c2ccc(N3CCCC(O)C3)cc2oc2c(Cl)cccc12` (centres unmarked) [Example 12, 5-chloro-3-(3-hydroxy-1-piperidyl)xanthen-9-one] had an IC50 of 2.88 µM.

`O=c1c2ccc(N3CCCCCC3)cc2oc2c(F)cccc12` [Example 13, 3-(azepan-1-yl)-5-fluoro-xanthen-9-one] gave an IC50 of 5.49 µM.

Regarding `O=C(O)C1CCCN(c2ccc3c(=O)c4cccc(Cl)c4oc3c2)C1` (centres unmarked) [Example 14, 1-(5-chloro-9-oxo-xanthen-3-yl)piperidine-3-carboxylic acid], it took 5.79 µM to reach half-maximal inhibition (IC50).

`O=C(O)[C@H]1CN(c2ccc3c(=O)c4cccc(Cl)c4oc3c2)C[C@@H]1c1ccc(F)cc1` [Example 15, (3R,4S)-1-(5-chloro-9-oxo-xanthen-3-yl)-4-(4-fluorophenyl)pyrrolidine-3-carboxylic Acid]: the IC50 is 7.39 µM.

`CC1(C(=O)O)CCN(c2ccc3c(=O)c4cccc(Cl)c4oc3c2)C1` (centres unmarked) [Example 16, 1-(5-chloro-9-oxo-xanthen-3-yl)-3-methyl-pyrrolidine-3-carboxylic Acid] came in with a half-maximal inhibitory concentration (IC50) of 11.2 µM.

In turn, `CC1(C)CN(c2ccc3c(=O)c4cccc(Cl)c4oc3c2)CC1C(=O)O` (centres unmarked) [Example 17, 1-(5-chloro-9-oxo-xanthen-3-yl)-4,4-dimethyl-pyrrolidine-3-carboxylic Acid] returned an IC50 of 12.7 µM.

`O=C(O)[C@H]1CN(c2ccc3c(=O)c4cccc(Cl)c4oc3c2)C[C@@H]1c1cccnc1` [Example 18, (3R,4S)-1-(5-chloro-9-oxo-xanthen-3-yl)-4-(3-pyridyl)pyrrolidine-3-carboxylic Acid] had an IC50 of 16.6 µM.

For the molecule `O=C(O)C1(C(F)(F)F)CCN(c2ccc3c(=O)c4cccc(Cl)c4oc3c2)C1` (centres unmarked) [Example 19, 1-(5-chloro-9-oxo-xanthen-3-yl)-3-(trifluoromethyl)pyrrolidine-3-carboxylic Acid], the midpoint of inhibition, the IC50, lay at 27 µM.

Molecule `O=C(O)[C@@H]1CN(c2ccc3c(=O)c4cccc(Cl)c4oc3c2)C[C@H]1c1ccc(Cl)cc1` [Example 20, (3S,4R)-1-(5-chloro-9-oxo-xanthen-3-yl)-4-(4-chlorophenyl)pyrrolidine-3-carboxylic Acid] returned an IC50 of 46.6 µM.

Molecule `O=c1c2ccc(N3CCCC3)cc2oc2c(F)cccc12` [Example 21, 5-fluoro-3-pyrrolidin-1-yl-xanthen-9-one] gave an IC50 of 0.27 µM.

The molecule `O=c1c2ccc(N3CCCC3)cc2oc2c(F)ccc(Cl)c12` [Example 22, 1-chloro-4-fluoro-6-pyrrolidin-1-ylxanthen-9-one] showed an IC50 of 0.74 µM.

As to `O=C1CCCN1c1ccc2c(=O)c3cccc(F)c3oc2c1` [Example 23, 1-(5-fluoro-9-oxo-xanthen-3-yl)pyrrolidin-2-one], the IC50 was 0.83 µM.

`O=c1c2ccc(N3CCC(O)C3)cc2oc2c(F)cccc12` (centres unmarked) [Example 24, 5-fluoro-3-(3-hydroxypyrrolidin-1-yl)xanthen-9-one] had a 50% inhibitory concentration (IC50) of 1.05 µM.

In the case of `Cc1cc2c(=O)c3cccc(F)c3oc2cc1N1CCCC1` [Example 25, 5-fluoro-2-methyl-3-pyrrolidin-1-yl-xanthen-9-one], the IC50 came to 1.52 µM.

In turn, `O=c1c2ccc(N3CC[C@H](O)C3)cc2oc2c(Cl)cccc12` [Example 27, 5-chloro-3-[(3S)-3-hydroxypyrrolidin-1-yl]xanthen-9-one] gave an IC50 of 1.95 µM.

Consider `O=c1c2cc(F)c(N3CCCC3)cc2oc2c(F)cccc12` [Example 28, 2,5-difluoro-3-pyrrolidin-1-yl-xanthen-9-one], for which the midpoint of inhibition, the IC50, lay at 1.86 µM.

With `O=c1c2ccc(N3CCOCC3)cc2oc2c(F)cccc12` [Example 29, 5-fluoro-3-morpholino-xanthen-9-one], the IC50 is 2.13 µM.

`O=c1c2ccc(N3CC[C@@H](O)C3)cc2oc2c(Cl)cccc12` [Example 30, 5-chloro-3-[(3R)-3-hydroxypyrrolidin-1-yl]xanthen-9-one] yielded an IC50 of 2.63 µM.

The molecule `O=c1c2ccc(N3CC[C@H](O)C3)cc2oc2c(F)cccc12` [Example 31, 5-fluoro-3-[(3S)-3-hydroxypyrrolidin-1-yl]xanthen-9-one] showed an IC50 of 2.71 µM.

The molecule `O=c1c2ccc(N3CC[C@@H](O)C3)cc2oc2c(F)cccc12` [Example 32, 5-fluoro-3-[(3R)-3-hydroxypyrrolidin-1-yl]xanthen-9-one] had an IC50 of 2.72 µM.

Regarding `COC1CCN(c2ccc3c(=O)c4cccc(F)c4oc3c2)C1` (centres unmarked) [Example 33, 5-fluoro-3-(3-methoxypyrrolidin-1-yl)xanthen-9-one], 4.06 µM corresponded to half-maximal inhibition (IC50).

`O=c1c2ccc(N3CCC(c4ccncc4)C3)cc2oc2c(F)cccc12` (centres unmarked) [Example 34, 5-fluoro-3-[3-(4-pyridyl)pyrrolidin-1-yl]xanthen-9-one] had an IC50 of 6.15 µM.

The molecule `O=c1c2ccc(N3CCCC3)cc2oc2c(F)cc(Cl)cc12` [Example 35, 2-chloro-4-fluoro-6-pyrrolidin-1-yl-xanthen-9-one] registered an IC50 of 16.7 µM.

`O=C(O)C1CCCN1c1ccc2c(=O)c3cccc(Cl)c3oc2c1` (centres unmarked) [Example 36, 1-(5-chloro-9-oxo-xanthen-3-yl)pyrrolidine-2-carboxylic Acid]: half-maximal inhibition (IC50) was put at 11.5 µM.

`O=C(O)C1CCN(c2ccc3c(=O)c4cccc(C(F)(F)F)c4oc3c2)C1` (centres unmarked) [Example 37, 1-[9-oxo-5-(trifluoromethyl)xanthen-3-yl]pyrrolidine-3-carboxylic Acid] came in with an IC50 of 13.4 µM.

`CN1CCN(c2ccc3c(=O)c4cccc(F)c4oc3c2)CC1` [Example 38, 5-fluoro-3-(4-methylpiperazin-1-yl)xanthen-9-one] came in with an IC50 of 16.1 µM.

Consider `O=c1c2cnc(N3CCCC3)cc2oc2c(F)cccc12` [Example 45, 6-fluoro-3-pyrrolidin-1-yl-chromeno[3,2-c]pyridin-10-one], for which the IC50 came out at 0.51 µM.

With `CN(C)C(=O)C1CCN(c2ccc3c(=O)c4cccc(Cl)c4oc3c2)C1` (centres unmarked) [Example 46, 1-(5-chloro-9-oxo-xanthen-3-yl)-N,N-dimethyl-pyrrolidine-3-carboxamide], the midpoint of inhibition, the IC50, lay at 4.3 µM.

`O=c1c2ccc(N3CCC4(CNC4)C3)cc2oc2c(F)cccc12` [Example 47, 3-(2,6-diazaspiro[3.4]octan-6-yl)-5-fluoro-xanthen-9-one] showed an IC50 of 4.77 µM.

`O=c1c2ccc(N3CCC4(CCNC4)C3)cc2oc2c(F)cccc12` (centres unmarked) [Example 48, 3-(2,7-diazaspiro[4.4]nonan-2-yl)-5-fluoro-xanthen-9-one] gave an IC50 of 5.48 µM.

The molecule `O=c1c2ccc(N3CCCNCC3)cc2oc2c(F)cccc12` [Example 49, 3-(1,4-diazepan-1-yl)-5-fluoro-xanthen-9-one] showed an IC50 of 7.56 µM.

Regarding `N[C@H]1CCN(c2ccc3c(=O)c4cccc(F)c4oc3c2)C1` [Example 50, 3-[(3S)-3-aminopyrrolidin-1-yl]-5-fluoro-xanthen-9-one], the IC50 was 3.12 µM.

Take `N[C@@H]1CCN(c2ccc3c(=O)c4cccc(F)c4oc3c2)C1` [Example 51, 3-[(3R)-3-aminopyrrolidin-1-yl]-5-fluoro-xanthen-9-one]: the IC50 worked out at 4.85 µM.

As for `Fc1cccc2c1Oc1cc(N3CCCC3)ccc1C21CCCO1` (centres unmarked) [Example 52, 1-(5′-fluorospiro[tetrahydrofuran-2,9′-xanthene]-3′-yl)pyrrolidine], the midpoint of inhibition, the IC50, lay at 14.5 µM.

Molecule `CC1c2ccc(N3CCCC3)cc2Oc2c(Cl)cccc21` (centres unmarked) [Example 54, 1-(5-chloro-9-methyl-9H-xanthen-3-yl)pyrrolidine] registered an IC50 of 1.6 µM.

For `Clc1cccc2c1Oc1cc(N3CCCC3)ccc1C2` [Example 55, 1-(5-chloro-9H-xanthen-3-yl)pyrrolidine], half-maximal inhibition (IC50) required 1.11 µM.

The values are drawn from patent US10611748B2, “Xanthone derivatives for the treatment of hepatitis B virus disease” (Hoffmann-La Roche Inc., priority 2017, dated 2020).
